According to US20080312192A1, “Diaryl Urea Derivatives in the Treatment of Protein Kinase Dependent Diseases” (priority 2003, published 2008):
Counter-ions that a name gives are not always drawn.

Target: T1, Flt-3 (Homo sapiens, UniProt P36888)
T1 construct: amino acids 563-993 of the cytoplasmic kinase domain of human Flt-3; made in house; host or cells: Sf9 insect cells (baculovirus, vector pFbacG01)
T1 sequence (P36888 563-993): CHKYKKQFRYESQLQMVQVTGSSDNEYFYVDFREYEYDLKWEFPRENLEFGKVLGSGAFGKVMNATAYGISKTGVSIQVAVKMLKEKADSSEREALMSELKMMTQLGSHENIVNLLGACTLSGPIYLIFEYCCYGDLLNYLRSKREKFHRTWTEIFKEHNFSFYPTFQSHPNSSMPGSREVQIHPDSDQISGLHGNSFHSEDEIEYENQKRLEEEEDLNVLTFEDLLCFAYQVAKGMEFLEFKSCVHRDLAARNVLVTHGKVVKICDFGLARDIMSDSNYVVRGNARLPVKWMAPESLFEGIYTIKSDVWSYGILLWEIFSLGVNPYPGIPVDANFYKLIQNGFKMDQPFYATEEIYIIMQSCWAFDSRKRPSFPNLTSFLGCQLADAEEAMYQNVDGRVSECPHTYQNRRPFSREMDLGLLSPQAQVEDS
Experiment: Flt-3 kinase inhibition (GST-Flt-3, 33P incorporation into poly(Glu,Tyr))
Assay type: biochemical
Method: Flt-3 kinase inhibition is determined as follows: The baculovirus donor vector pFbacG01 (GIBCO) is used to generate a recombinant baculovirus expressing the amino acid region amino acids 563-993 of the cytoplasmic kinase domain of human Flt-3. The coding sequence for the cytoplasmic domain of Flt-3 is amplified by PCR from human c-DNA libraries (Clontech). The amplified DNA fragments and the pFbacG01 vector are made compatible for ligation by digestion with BamHI and HindIII. Ligation of these DNA fragments results in the baculovirus donor plasmid pFbacG01-Flt-3. The production of the viruses, the expression of proteins in Sf9 cells and the purification of the GST-fused proteins are performed as follows:
Production of virus: The baculovirus donor plasmid (pFbacG01-Flt-3) containing the Flt-3 kinase domain is transfected into the DH10Bac cell line (GIBCO) and the transfected cells are plated on selective agar plates. Colonies without insertion of the fusion sequence into the viral genome (carried by the bacteria) are blue. Single white colonies are picked and viral DNA (bacmid) is isolated from the bacteria by standard plasmid purification procedures. Sf9 or Sf21 cells (American Type Culture Collection) are then transfected in flasks with the viral DNA using Cellfectin reagent.
Protein expression in Sf9 cells: Virus containing media is collected from the transfected cell culture and used for infection to increase its titre. Virus containing media obtained after two rounds of infection is used for large-scale protein expression. For large-scale protein expression 100 cm^2 round tissue culture plates are seeded with 5×10^7 cells/plate and infected with 1 mL of virus-containing media (approx. 5 MOIs). After 3 days the cells are scraped off the plate and centrifuged at 500 rpm for 5 min. Cell pellets from 10-20, 100 cm^2 plates are resuspended in 50 mL of ice-cold lysis buffer (25 mM Tris-HCl, pH 7.5, 2 mM EDTA-1% NP-40. 1 mM DTT, 1 mM PMSF). The cells are stirred on ice for 15 min and then centrifuged at 5000 rpms for 20 min.
Purification of GST-tagged protein: The centrifuged cell lysate is loaded onto a 2 mL glutathione-sepharose column (Pharmacia) and washed three times with 10 mL of 25 mM Tris-HCl, pH 7.5, 2 mM EDTA, 1 mM DTT, 200 mM NaCl. The GST-tagged protein is then eluted by 10 applications (1 mL each) of 25 mM Tris-HCl, pH 7.5, 10 mM reduced-glutathione, 100 mM NaCl, 1 mM DTT, 10% Glycerol and stored at −70° C.
Measurement of enzyme activity: Tyrosine protein kinase assays with purified GST-Flt-3 protein are carried out in a final volume of 30 μL containing 200-1800 ng of enzyme protein (depending on the specific activity), 20 mM Tris-HCl, pH 7.6, 3 mM MnCl2, 3 mM MgCl2, 1 mM DTT, 10 μM Na3VO4, 3 μg/mL poly(Glu, Tyr) 4:1, 1% DMSO, 8.0 μM ATP and 0.1 μCi [γ^33 P] ATP. The activity is assayed in the presence or absence of inhibitors, by measuring the incorporation of ^33P from [γ^33P] ATP into the poly(Glu,Tyr) substrate. The assay (30 μL) is carried out in 96-well plates at ambient temperature for 20 min and terminated by the addition of 20 μL of 125 mM EDTA. Subsequently, 40 μL of the reaction mixture is transferred onto Immobilon-PVDF membrane (Millipore, Bedford, Mass., USA) previously soaked for 5 min with methanol, rinsed with water, then soaked for 5 min with 0.5% H3PO4 and mounted on vacuum manifold with disconnected vacuum source. After spotting all samples, vacuum is connected and each well rinsed with 200 μL 0.5% H3PO4. Membranes are removed and washed 4× on a shaker with 1.0% H3PO4, once with ethanol. Membranes are counted after drying at ambient temperature, mounting in Packard TopCount 96-well frame, and addition of 10 μL/well of Microscint™ (Packard). IC50 values are calculated by linear regression analysis of the percentage inhibition of each compound in duplicate, at four concentrations (usually 0.01, 0.1, 1 and 10 μM). One unit of protein kinase activity is defined as 1 nmole of ^33P transferred from [γ3P] […]

IC50 | SMILES
360 nM | CNc1cc(Oc2ccc(NC(=O)Nc3ccc(CN4CCC4)c(C(F)(F)F)c3)cc2)ncn1 [Example 34b.1]
118 nM | Nc1cc(Oc2ccc(NC(=O)Nc3ccc(-c4ccccn4)c(C(F)(F)F)c3)cc2)ncn1 [Example 57, 1-[4-(6-Amino-pyrimidin-4-yloxy)-phenyl]-3-(4-pyridin-2-yl-3-trifluoromethyl-phenyl)-urea]
370 nM | Nc1cc(Oc2ccc(NC(=O)Nc3ccc(CN4CCC4)c(C(F)(F)F)c3)cc2)ncn1 [Example 34b.3]
290 nM | CC(C)(C)CN1CCN(Cc2ccc(NC(=O)Nc3ccc(Oc4cc(N)ncn4)cc3)cc2C(F)(F)F)CC1 [Example 34t.2]
250 nM | CCN1CCN(Cc2ccc(NC(=O)Nc3ccc(Oc4ccnc(N)n4)cc3)cc2)CC1 [Example 51e.1]
910 nM | CCN1CCN(Cc2ccc(NC(=O)Nc3ccc(Oc4ccnc(NC)n4)cc3)cc2)CC1 [Example 51e.2]
283 nM | Nc1cc(Oc2ccc(NC(=O)Nc3ccc(CN4CCCC4)c(C(F)(F)F)c3)cc2)ncn1 [Example 34j.3]
370 nM | COc1cccc(Nc2cc(Oc3ccc(NC(=O)Nc4ccc(N5CCOCC5)c(C(F)(F)F)c4)cc3)ncn2)c1 [Example 55c]
1100 nM | CNc1cc(Oc2ccc(NC(=O)Nc3ccc(CN(C)C(C)(C)C)c(C(F)(F)F)c3)cc2)ncn1 [Example 34a.1]
378 nM | CCN1CCN(Cc2ccc(NC(=O)Nc3ccc(Oc4cc(N)ncn4)cc3)cc2C)CC1 [Example 34g.3]
200 nM | CN(C)CCCN(C)Cc1ccc(NC(=O)Nc2ccc(Oc3cc(N)ncn3)cc2)cc1C(F)(F)F [Example 34n.3]
250 nM | CNc1cc(Oc2ccc(NC(=O)Nc3ccc(CN4CCCC4)c(C(F)(F)F)c3)cc2)ncn1 [Example 34j.1]
580 nM | CNc1nccc(Oc2ccc(NC(=O)Nc3ccc(CN(C)C)c(C(F)(F)F)c3)cc2)n1 [Example 48, N-[4-(2-Methylamino-pyrimidin-4-yloxy)-phenyl]-N′-[4-(4-dimethylamino-methyl) 3-trifluoromethyl-phenyl]-urea]
1800 nM | CN(Cc1ccc(NC(=O)Nc2ccc(Oc3cc(Cl)ncn3)cc2)cc1C(F)(F)F)C(C)(C)C [Example 21, N-[4-(6-Chloro-pyrimidin-4-yloxy)-phenyl]-N′-[4-(methyl-^tertbutyl-amino-methyl)-3-trifluoromethyl-phenyl]-urea]
91 nM | CCN1CCN(Cc2ccc(NC(=O)Nc3ccc(Oc4ccnc(N)n4)cc3)cc2C)CC1 [Example 51d.1]
160 nM | CNc1cc(Oc2ccc(NC(=O)Nc3ccc(Cn4ccnc4C)c(C(F)(F)F)c3)cc2)ncn1 [Example 34e.1]
830 nM | CN(Cc1ccc(NC(=O)Nc2ccc(Oc3cc(N)ncn3)cc2)cc1C(F)(F)F)C(C)(C)C [Example 34a.3]
400 nM | CCN(CC)Cc1ccc(NC(=O)Nc2ccc(Oc3cc(NC)ncn3)cc2)cc1C(F)(F)F [Example 34m.1]

IC50 | SMILES
360 nM | CNc1cc(Oc2ccc(NC(=O)Nc3ccc(CN4CCN(C(C)C)CC4)c(C(F)(F)F)c3)cc2)ncn1 [Example 16, N-[4-(6-Methylamino-pyrimidin-4-yloxy)-phenyl]-N′-[4-(4-isopropylpiperazin-1-ylmethyl)-3-trifluoromethyl-phenyl]-urea trifluoroacetate]
290 nM | Cc1ncn(Cc2ccc(NC(=O)Nc3ccc(Oc4cc(N)ncn4)cc3)cc2C(F)(F)F)c1C [Example 34d.3]
540 nM | CNc1cc(Oc2ccc(NC(=O)Nc3ccc(CN4CCN(C(C)(C)C)CC4)c(C(F)(F)F)c3)cc2)ncn1 [Example 34c.1]
1500 nM | CC(C)(C)CN1CCN(c2ccc(NC(=O)Nc3ccc(Oc4cc(N)ncn4)cc3)cc2C(F)(F)F)CC1 [Example 34u.2]
970 nM | O=C(Nc1ccc(Oc2cc(NC3CCC(O)CC3)ncn2)cc1)Nc1ccc(N2CCOCC2)c(C(F)(F)F)c1 (stereo not drawn) [Example 55d]
300 nM | CCN1CCN(Cc2ccc(NC(=O)Nc3ccc(Oc4cc(NC)ncn4)cc3)cc2C)CC1 [Example 34g.1]
360 nM | CN1CCN(Cc2ccc(NC(=O)Nc3ccc(Oc4cc(Cl)ncn4)cc3)cc2C(F)(F)F)CC1 [Example 14, N-[4-(6-Chloro-pyrimidin-4-yloxy)-phenyl]-N′-[4-(4-methylpiperazin-1-ylmethyl)-3-trifluoromethyl-phenyl]-urea]
420 nM | CNC(=O)c1cc(NC(=O)Nc2ccc(Oc3cc(NC)ncn3)cc2)cc(C(F)(F)F)c1 [Example 41, 3-{3-[4-(6-Methylamino-pyrimidin-4-yloxy)-phenyl]-ureido}-N-methyl-5-trifluoromethyl-benzamide]
350 nM | CC(C)(C)N1CCN(Cc2ccc(NC(=O)Nc3ccc(Oc4cc(N)ncn4)cc3)cc2C(F)(F)F)CC1 [Example 34c.3]
100 nM | Nc1cc(Oc2ccc(NC(=O)Nc3ccc(CN4CCOCC4)c(C(F)(F)F)c3)cc2)ncn1 [Example 34k.3]
600 nM | CC(C)N1CCN(Cc2ccc(NC(=O)Nc3ccc(Oc4cc(Cl)ncn4)cc3)cc2C(F)(F)F)CC1 [Example 15, N-[4-(6-Chloro-pyrimidin-4-yloxy)-phenyl]-N′-[4-(4-isopropylpiperazin-1-ylmethyl)-3-trifluoromethyl-phenyl]-urea]
160 nM | CNC(=O)c1cc(NC(=O)Nc2ccc(Oc3cc(N)ncn3)cc2)cc(C(F)(F)F)c1 [Example 43, 3-{3-[4-(6-Amino-pyrimidin-4-yloxy)-phenyl]-ureido}-N-methyl-5-trifluoromethyl-benzamide]
130 nM | Cc1nccn1Cc1ccc(NC(=O)Nc2ccc(Oc3ccnc(N)n3)cc2)cc1C(F)(F)F [Example 51b.1]
1200 nM | CNc1cc(Oc2ccc(NC(=O)Nc3cc(CN4CCC4)cc(C(F)(F)F)c3)cc2)ncn1 [Example 2, N-[4-(6-Methylamino-pyrimidin-4-yloxy)-phenyl]-N′-(3-azetidin-1-ylmethyl-5-trifluoromethyl-phenyl)-urea]
354 nM | NC(=O)c1cc(NC(=O)Nc2ccc(Oc3cc(N)ncn3)cc2)cc(C(F)(F)F)c1 [Example 38, 3-{3-[4-(6-Amino-pyrimidin-4-yloxy)-phenyl]-ureido}-5-trifluoromethyl-benzamide]
80 nM | Nc1nccc(Oc2ccc(NC(=O)Nc3cccc(C(F)(F)F)c3)cc2)n1 [Example 52b]
200 nM | CCN(CC)Cc1ccc(NC(=O)Nc2ccc(Oc3cc(N)ncn3)cc2)cc1C(F)(F)F [Example 34m.3]
510 nM | CC(C)N1CCN(Cc2cc(NC(=O)Nc3ccc(Oc4cc(N)ncn4)cc3)cc(C(F)(F)F)c2)CC1 [Example 8, N-[4-(6-Amino-pyrimidin-4-yloxy)-phenyl]-N′-[3-(4-isopropylpiperazin-1-ylmethyl)-5-trifluoromethyl-phenyl]-urea]
